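Abbreviation: GI50, concentration required for 50% inhibition of growth. TGI: concentration producing complete growth inhibition.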
Assays:
Test in all cases: NCI-60 cell line screen, 384-well format
[1] = system: IGROV1 ovarian
[2] = system: SNB-75 CNS
[3] = system: HL-60(TB) leukemia
[4] = system: HT29 colon
[5] = system: BT-549 breast
[6] = system: ACHN renal
[7] = system: MALME-3M melanoma
[8] = system: UACC-62 melanoma
[9] = system: A498 renal
[10] = system: RPMI-8226 leukemia
[11] = system: SNB-19 CNS
[12] = system: MOLT-4 leukemia
[13] = system: EKVX NSCLC
[14] = system: SF-539 CNS
[15] = system: HOP-62 NSCLC
[16] = system: TK-10 renal
[17] = system: HS 578T breast
[18] = system: COLO 205 colon
[19] = system: 786-0 renal
[20] = system: OVCAR-8 ovarian
[21] = system: K-562 leukemia
[22] = system: CAKI-1 renal
[23] = system: DU-145 prostate
[24] = system: HCC-2998 colon
[25] = system: T-47D breast
[26] = system: NCI-H460 NSCLC
[27] = system: SN12C renal
[28] = system: SK-OV-3 ovarian
[29] = system: PC-3 prostate
[30] = system: NCI-H522 lung
[31] = system: NCI-H322M lung
[32] = system: SK-MEL-5 melanoma
[33] = system: NCI-H23 lung
[34] = system: A549 NSCLC
[35] = system: MDA-MB-231 breast
[36] = system: MDA-MB-468 breast
[37] = system: CCRF-CEM leukemia
[38] = system: RXF 393 renal
[39] = system: SW-620 colon
[40] = system: OVCAR-4 ovarian
[41] = system: OVCAR-3 ovarian
[42] = system: SF-268 CNS
[43] = system: NCI/ADR-RES ovarian
[44] = system: M14 melanoma
[45] = system: NCI-H226 lung
[46] = system: SF-295 CNS
[47] = system: UACC-257 melanoma
[48] = system: UO-31 renal
[49] = system: KM12 colon
[50] = system: LOX IMVI melanoma
[51] = system: OVCAR-5 ovarian
[52] = system: MCF7 breast
[53] = system: SK-MEL-28 melanoma
[54] = system: HCT-15 colon
[55] = system: HOP-92 NSCLC
[56] = system: MDA-MB-435 melanoma

## CC1(C)CN(c2cc(C(F)(F)F)cc3cncn23)CCC12NC(=O)NC2=O (configuration not stated)
[1]
  GI50: 27.8 µM
  TGI: 75.8 µM
[2]
  GI50: 42.4 µM
  TGI: > 100 µM
[3]
  GI50: 14.5 µM
  TGI: 27.8 µM
[4]
  GI50: 46 µM
  TGI: > 100 µM
[5]
  GI50: 19.8 µM
  TGI: > 100 µM
[6]
  GI50: 38.2 µM
  TGI: > 100 µM
[7]
  GI50: 28.1 µM
  TGI: 88.7 µM
[8]
  GI50: 19.2 µM
  TGI: 63.7 µM
[9]
  GI50: 26 µM
  TGI: > 100 µM
[10]
  GI50: 15.3 µM
  TGI: 45.8 µM
[11]
  GI50: 55.7 µM
  TGI: > 100 µM
[12]
  GI50: 12.3 µM
  TGI: 25.1 µM
[13]
  GI50: 15.1 µM
  TGI: 59.7 µM
[14]
  GI50: 91.7 µM
  TGI: > 100 µM
[15]
  GI50: 28.3 µM
  TGI: > 100 µM
[16]
  GI50: 35.5 µM
  TGI: > 100 µM
[17]
  GI50: 12.9 µM
  TGI: 35.6 µM
[18]
  GI50: 68.9 µM
  TGI: > 100 µM
[19]
  GI50: 35.1 µM
  TGI: > 100 µM
[20]
  GI50: 33.5 µM
  TGI: > 100 µM
[21]
  GI50: 42.6 µM
  TGI: > 100 µM
[22]
  GI50: 30.6 µM
  TGI: > 100 µM
[23]
  GI50: 40 µM
  TGI: > 100 µM
[24]
  GI50: 29.4 µM
  TGI: 73.9 µM
[25]
  GI50: 29.2 µM
  TGI: > 100 µM
[26]
  GI50: 38.1 µM
  TGI: > 100 µM
[27]
  GI50: 40.4 µM
  TGI: > 100 µM
[28]
  GI50: 40.9 µM
  TGI: > 100 µM
[29]
  GI50: 26.2 µM
  TGI: 99.2 µM
[30]
  GI50: 54 µM
  TGI: > 100 µM
[31]
  GI50: 57.8 µM
  TGI: > 100 µM
[32]
  GI50: 33.5 µM
  TGI: 95.7 µM
[33]
  GI50: 30.7 µM
  TGI: > 100 µM
[34]
  GI50: 35.3 µM
  TGI: > 100 µM
[35]
  GI50: 32.2 µM
  TGI: > 100 µM
[36]
  GI50: 12.5 µM
  TGI: 35.2 µM
[37]
  GI50: 12 µM
  TGI: 26.7 µM
[38]
  GI50: 29.4 µM
  TGI: > 100 µM
[39]
  GI50: > 100 µM
  TGI: > 100 µM
[40]
  GI50: 18.8 µM
  TGI: 82.6 µM
[41]
  GI50: 28.4 µM
  TGI: > 100 µM
[42]
  GI50: 26.9 µM
  TGI: > 100 µM
[43]
  GI50: > 100 µM
  TGI: > 100 µM
[44]
  GI50: 48.1 µM
  TGI: > 100 µM
[45]
  GI50: 26.6 µM
  TGI: > 100 µM
[46]
  GI50: 24.8 µM
  TGI: 74.8 µM
[47]
  GI50: 61.3 µM
  TGI: > 100 µM
[48]
  GI50: 56.8 µM
  TGI: > 100 µM
[49]
  GI50: 36 µM
  TGI: > 100 µM
[50]
  GI50: 32.5 µM
  TGI: > 100 µM
[51]
  GI50: 39.4 µM
  TGI: > 100 µM
[52]
  GI50: 26 µM
  TGI: 99.6 µM
[53]
  GI50: 47.8 µM
  TGI: > 100 µM
[54]
  GI50: 40.6 µM
  TGI: > 100 µM
[55]
  GI50: 26.1 µM
  TGI: > 100 µM
[56]
  GI50: 62.2 µM
  TGI: > 100 µM

— PubChem BioAssay (NCI)
